# Measured values from patent US11731965B2, “Tetrahydroprotoberberine compound, preparation method therefor and uses thereof, and pharmaceutical composition” (SHANGHAI INSTITUTE OF MATERIA MEDICA, CHINESE ACADEMY OF …, priority 2017, dated 2023).
# Legend:
# [1] = target: T1, human recombinant D1 receptor (Homo sapiens, UniProt P21728); assay: D1 antagonistic activity test (LANCE cAMP, antagonism of dopamine-induced cAMP production in HEK293 cells); format: cell-based; conditions: HEK293 cells expressing human recombinant D1 receptor; test concentration 0.1 nM to 10000 nM; read-out: D1 Antagonistic Activity (IC50, nmol/L)
# T1 construct: expressed in transfected cells; host or cells: HEK293
# Description: • 1) D1 antagonistic activity test
# The D1 antagonism of the compound was evaluated by testing the antagonistic action of the compounds against dopamine on the induction of cAMP production in HEK293 cells. The cAMP concentration test was performed according to the method described in the kit instructions. The test concentration of the compound was 0.1 nM to 10000 nM. SCH23390 was used as a positive control. The IC50 was calculated by Excelfit software.
# [2] = target: T2, human recombinant D2 receptor (Homo sapiens, UniProt P14416); assay: D2 antagonistic activity test (LANCE cAMP, antagonism of dopamine inhibition of cAMP production in HEK293 cells); format: cell-based; conditions: HEK293 cells expressing human recombinant D2 receptor; test concentration 0.1 nM to 10000 nM; read-out: D2 Antagonistic Activity (IC50, nmol/L)
# T2 construct: expressed in transfected cells; host or cells: HEK293
# Description: LANCE™ cAMP 384 Kit (PerkinElmer, USA) was used to test the antagonism of the compound against the D1 receptor using the HEK293 cells expressing human recombinant D1 receptor. The D1 antagonism of the compound was evaluated by testing the antagonistic action of the compounds against dopamine on the induction of cAMP production in HEK293 cells. The cAMP concentration test was performed according to the method described in the kit instructions. The test concentration of the compound was 0.1 nM to 10000 nM. SCH23390 was used as a positive control. The IC50 was calculated by Excelfit software. The test results of some compounds were shown in Table 1. • 2) D2 antagonistic activity test LANCE™ cAMP 384 Kit (PerkinElmer, USA) was used to test the antagonism of the compound against the D2 receptor using the HEK293 cells expressing human recombinant D2 receptor. The D2 antagonism of the compound was evaluated by testing the antagonistic action of the compounds against dopamine on the inhibition of cAMP production in HEK293 cells. The cAMP concentration test was performed according to the method described in the kit instructions. The test concentration of the compound was 0.1 nM to 10000 nM. Risperidone was used as a positive control. The IC50 was calculated by Excelfit software. The test results of some compounds were shown in Table 1 (ND means the test was not performed).
# [3] = system: PCP-induced high spontaneous activity in mice; assay: PCP-induced high spontaneous activity test in mice; format: in vivo, Male ICR mice; conditions: dose by gavage that significantly reduces PCP (7 mg/kg ip) induced high spontaneous activity of mice vs model group
# Description: PCP (phencylidine) was dissolved in physiological saline to prepare a 7 mg/kg solution. The test compound was formulated with a 0.5% CMC-Na solution to a solution with suitable concentration, ready-to-use. Male ICR mice were 18-22 g. Mice were randomly divided into a solvent control group, a model control group, a positive control group, and each test drug group during the test. There were 8 mice in each group. Mice in each group were given each test drug by gavage. 45 minutes after the test drug was administered, mice were injected with a PCP (7 mg/kg) solution intraperitoneally. The spontaneous, open field video analysis system was used to record the mouse movement trajectory within 45 min after administration of test drug or saline, and then the mouse movement trajectory within 75 min after PCP administration. Spontaneous, open field video analysis system was used to analyze the mouse's movement trajectory, and the total distance of the movement of the mice in each group was counted. The result was expressed as mean±SD. Results were analyzed by one-way analysis of variance.
# T2 sequence (P14416 whole entry): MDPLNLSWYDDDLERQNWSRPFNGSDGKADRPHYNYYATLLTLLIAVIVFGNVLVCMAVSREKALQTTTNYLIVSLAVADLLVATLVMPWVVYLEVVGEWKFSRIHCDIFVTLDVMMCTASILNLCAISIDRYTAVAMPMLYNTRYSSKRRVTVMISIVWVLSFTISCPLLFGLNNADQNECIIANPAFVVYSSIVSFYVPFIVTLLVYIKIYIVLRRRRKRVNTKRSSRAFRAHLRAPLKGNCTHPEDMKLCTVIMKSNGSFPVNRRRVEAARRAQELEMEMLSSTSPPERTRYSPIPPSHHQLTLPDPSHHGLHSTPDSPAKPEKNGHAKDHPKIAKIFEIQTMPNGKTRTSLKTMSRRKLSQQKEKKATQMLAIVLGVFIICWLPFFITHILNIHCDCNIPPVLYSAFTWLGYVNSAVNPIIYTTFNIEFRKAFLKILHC
# T1 sequence (P21728 whole entry): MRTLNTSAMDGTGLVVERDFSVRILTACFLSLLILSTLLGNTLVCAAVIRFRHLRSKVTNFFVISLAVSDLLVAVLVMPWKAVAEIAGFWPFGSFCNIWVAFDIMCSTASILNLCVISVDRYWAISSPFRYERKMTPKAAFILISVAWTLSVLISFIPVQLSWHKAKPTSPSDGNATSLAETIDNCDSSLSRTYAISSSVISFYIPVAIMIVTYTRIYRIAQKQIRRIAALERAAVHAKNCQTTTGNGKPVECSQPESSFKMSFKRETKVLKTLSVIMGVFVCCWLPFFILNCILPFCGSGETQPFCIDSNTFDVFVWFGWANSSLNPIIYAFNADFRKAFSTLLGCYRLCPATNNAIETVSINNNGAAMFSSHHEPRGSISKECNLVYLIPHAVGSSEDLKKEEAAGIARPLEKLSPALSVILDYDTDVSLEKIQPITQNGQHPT
smiles,measurement,setting,value
"COc1cc2c(cc1C#N)[C@@H]1Cc3ccc(OC)c(OC)c3CN1CC2 [Example 4, (S)-2-cyano-3,9,10-trimethoxy-6,8,13,13a-tetrahydro-5H-dibenzo [a,g] quinolizine]",IC50,[1],310 nmol/L
same,IC50,[2],950 nmol/L
"COc1cc2c(cc1Br)[C@@H]1Cc3ccc(OC)c(OC)c3CN1CC2 [Example 15, (S)-2-bromo-3,9,10-tritmethoxy-6,8,13,13a-tetrahydro-5H-dibenzo [a,g] quinolizine]",IC50,[1],120 nmol/L
same,IC50,[2],550 nmol/L
"COc1cc2c(cc1C=O)[C@@H]1Cc3ccc(OC)c(OC)c3CN1CC2 [Example 6, (S)-2-formyl-3,9,10-trimethoxy-6,8,13,13a-tetrahydro-5H-dibenzo[a,g] quinolizine]",IC50,[1],49 nmol/L
same,IC50,[2],210 nmol/L
"COc1ccc2c(c1OC)CN1CCc3cc(OC)c4nc[nH]c4c3[C@@H]1C2 [Example 42, (S)-4,10,11-trimethoxy-1,6,7,9,14,14a-hexahydroimidazo[4,5-h] isoquinolino[3,2-a]isoquinoline]",IC50,[1],31.1 nmol/L
same,Effective Dose,[3],10 mg/kg
same,IC50,[2],291 nmol/L
"COc1ccc2c(c1OC)CN1CCc3cc4nc[nH]c4cc3C1C2 (stereo not drawn) [Example 44, 9,10-Dimethoxy-1,5,6,8,13,13a-hexahydroimidazo[4,5-g]isoquinolino [3,2-a]isoquinoline]",IC50,[1],672 nmol/L
same,IC50,[2],139 nmol/L
"COc1ccc2c(c1OC)CN1CCc3cc(OC)c4[nH]c(=S)[nH]c4c3[C@@H]1C2 [Example 41, (S)-4,10,11-trimethoxy-3,6,7,9,14,14a-Hexahydroimidazo[4,5-h] isoquinolino [3,2-a]isoquinoline-2(1H)-thione]",Effective Dose,[3],3 mg/kg
same,IC50,[2],20 nmol/L
"COc1cc2c(cc1OC)[C@@H]1Cc3ccc(C(N)=O)c(OC)c3CN1CC2 [Example 28, (S)-2,3,9-trimethoxy-10-carbamoyl-6,8,13,13a-tetrahydro-5H-dibenzo[a,g] quinolizine]",IC50,[1],2160 nmol/L
"COc1ccc2c(c1OC)CN1CCc3cc4ncoc4cc3C1C2 (stereo not drawn) [Example 45, 9,10-Dimethoxy-6,8,13,13a-tetrahydro-5H-isoquinolino[3,2-a] oxazolo[4,5-g]isoquinoline]",IC50,[1],116 nmol/L
"COc1cc2c(cc1OC)[C@@H]1Cc3ccc(C)c(OC)c3CN1CC2 [Example 26, (S)-2,3,9-trimethoxy-10-methyl-6,8,13,13a-tetrahydro-5H-dibenzo [a,g] quinolizine]",IC50,[2],940 nmol/L
"COc1cc2c(cc1C)[C@@H]1Cc3ccc(OC)c(OC)c3CN1CC2 [Example 1, (S)-2-methyl-3,9,10-trimethoxy-6,8,13,13a-tetrahydro-5H-dibenzo[a,g] quinolizine]",IC50,[1],34.9 nmol/L
same,Effective Dose,[3],20 mg/kg
same,IC50,[2],620 nmol/L
"COc1cc2c(cc1OC)[C@@H]1Cc3ccc(CO)c(OC)c3CN1CC2 [Example 30, (S)-2,3,9-trimethoxy-10-hydroxymethyl-6,8,13,13a-tetrahydro-5H-dibenzo[a,g] quinolizine]",IC50,[1],1080 nmol/L
same,IC50,[2],510 nmol/L
"C=CCOc1cc2c(cc1OC)CCN1Cc3c(ccc(OC)c3OC)C[C@@H]21 [Example 52, (S)-2-allyloxy-3,9,10-trimethoxy-6,8,13,13a-tetahydro-5H-dibenzo [a,g] quinolizine]",IC50,[1],220 nmol/L
same,Effective Dose,[3],20 mg/kg
same,IC50,[2],450 nmol/L
"COc1ccc2c(c1OC)CN1CCc3cc4[nH]c(=O)oc4cc3C1C2 (stereo not drawn) [Example 46, 9,10-Dimethoxy-3,5,6,8,13,13a-Hexahydro-2H-isoquinolino[3,2-a] oxazolo[4,5-g]isoquinolin-2-one]",IC50,[1],378 nmol/L
same,Effective Dose,[3],10 mg/kg
same,IC50,[2],184 nmol/L
"COc1cc2c(cc1OC)[C@@H]1Cc3ccc(C=O)c(OC)c3CN1CC2 [Example 29, (S)-2,3,9-trimethoxy-10-formyl-6,8,13,13a-tetrahydro-5H-dibenzo [a,g] quinolizine]",IC50,[2],2500 nmol/L
"COc1ccc2c(c1OC)CN1CCc3cc4c(cc3C1C2)C(=O)NC4=O (stereo not drawn) [Example 36, 9,10-dimethoxy-5,6,13,13a-tetrahydroisoquinolino[3,2-a]pyrrolo [3,4-g]isoquinoline-1,3(2H,8H)-dione]",IC50,[1],26.2 nmol/L
same,Effective Dose,[3],10 mg/kg
same,IC50,[2],427 nmol/L
"COc1cc2c(cc1OC)[C@@H]1Cc3ccc(OC)c(C#N)c3CN1CC2 [Example 19, (S)-2,3,10-trimethoxy-9-cyano-6,8,13,13a-tetrahydro-5H-dibenzo [a,g] quinolizine]",IC50,[1],1300 nmol/L
same,Effective Dose,[3],20 mg/kg
"COc1ccc2c(c1OC)CN1CCc3cc(OC)c4nn[nH]c4c3[C@@H]1C2 [Example 43, (S)-4,10,11-trimethoxy-1,6,7,9,14,14a-hexahydroisoquinolino[3,2-a] [1,2,3]triazolo[4,5-h]isoquinoline]",IC50,[2],54 nmol/L
"COc1ccc2c(c1OC)CN1CCc3ccc4c(c3C1C2)NC(=O)CO4 (stereo not drawn) [Example 50, 11,12-Dimethoxy-3,7,8,10,15,15a-hexahydroisoquinolino[3,2-a][1,4] oxazino [2,3-h]isoquinoline-2(1H)-one]",IC50,[1],855 nmol/L
same,Effective Dose,[3],10 mg/kg
"COc1cc2c(cc1N)[C@@H]1Cc3ccc(N)c(OC)c3CN1CC2 [Example 33, (S)-2,10-diamino-3,9-dimethoxy-6,8,13,13a-tetrahydro-5H-dibenzo [a,g] quinolizine]",IC50,[1],270 nmol/L
same,Effective Dose,[3],20 mg/kg
same,IC50,[2],440 nmol/L
"COc1cc2c(cc1OC(F)F)[C@@H]1Cc3ccc(OC)c(OC)c3CN1CC2 [Example 51, (S)-2-(difluoromethoxy)-3,9,10-trimethoxy-6,8,13,13a-tetrahydro-5H-dibenzo[a,g] quinolizine]",IC50,[2],390 nmol/L
"COc1cc2c(cc1OC)[C@@H]1Cc3ccc(OC)c(C=O)c3CN1CC2 [Example 24, (S)-2,3,10-trimethoxy-9-formyl-6,8,13,13a-tetrahydro-5H-dibenzo [a,g] quinolizine]",IC50,[1],1300 nmol/L
"COc1ccc2c(c1OC)CN1CCc3ccc4oc(=O)[nH]c4c3C1C2 (stereo not drawn) [Example 49, 10,11-Dimethoxy-6,7,14,14a-tetrahydro-1H-isoquinolino[3,2-a] oxazolo[5,4-h] isoquinoline-2 (9H)-one]",IC50,[1],219 nmol/L
same,Effective Dose,[3],10 mg/kg
"COc1cc2c(cc1NC(C)=O)[C@@H]1Cc3ccc(NC(C)=O)c(OC)c3CN1CC2 [Example 34, (S)-2,10-di(acetamino)-3,9-dimethoxy-6,8,13,13a-tetrahydro-5H-dibenzo[a,g] quinolizine]",Effective Dose,[3],20 mg/kg
"COc1cc2c(cc1OCCO)[C@@H]1Cc3ccc(OCCO)c(OC)c3CN1CC2 [Example 55, (S)-2,10-di(hydroxyethoxy)-3,9-dimethoxy-6,8,13,13a-tetrahydro-5H-dibenzo [a,g] quinolizine]",IC50,[1],443 nmol/L
"COc1cc2c(cc1OC)[C@@H]1Cc3ccc(CNC(C)=O)c(OC)c3CN1CC2 [Example 32, (S)-2,3,9-trimethoxy-10-acetaminomethyl-6,8,13,13a-tetrahydro-5H-dibenzo[a,g] quinolizine]",IC50,[2],663 nmol/L
"CCCc1cc2c(cc1OC)CCN1Cc3c(ccc(OC)c3OC)C[C@@H]21 [Example 2, (S)-2-n-propyl-3,9,10-trimethoxy-6,8,13,13a-tetrahydro-5H-dibenzo [a,g] quinolizine]",Effective Dose,[3],20 mg/kg
same,IC50,[2],280 nmol/L
